Measured values as given in the kinase profiling compilation of Christmann-Franck et al. (2016).
Values belong to the molecule of their own block, whether it stands above or below them.

Tests used:
Assay in all cases: radiometric filter-binding kinase assay, Kinase HotSpot
Conditions in all cases: compound 0.5 µM; ATP 10 µM
ULK3 (human) = ULK3 (human) (UniProt Q6PHR2)
ROCK1 (human) = ROCK1 (human) (UniProt Q13464)
YES1 (human) = YES1 (human) (UniProt P07947)
PRKCB1 (human) = PRKCB1 (human) (UniProt P05771)
HIPK4 (human) = HIPK4 (human) (UniProt Q8NE63)
CAMK1 (human) = CAMK1 (human) (UniProt Q14012)
ACVR1 (human) = ACVR1 (human) (UniProt Q04771)
ZAP70 (human) = ZAP70 (human) (UniProt P43403)
FYN (human) = FYN (human) (UniProt P06241)
MAP3K10 (human) = MAP3K10 (human) (UniProt Q02779)
MYLK2 (human) = MYLK2 (human) (UniProt Q9H1R3)
MAPKAPK2 (human) = MAPKAPK2 (human) (UniProt P49137)
STK16 (human) = STK16 (human) (UniProt O75716)
STK33 (human) = STK33 (human) (UniProt Q9BYT3)
LRRK2 (human) = LRRK2 (human) (UniProt Q5S007)
GSK3B (human) = GSK3B (human) (UniProt P49841)
ACVR1B (human) = ACVR1B (human) (UniProt P36896)
PAK4 (human) = PAK4 (human) (UniProt O96013)
DYRK2 (human) = DYRK2 (human) (UniProt Q92630)
FLT3 (human) = FLT3 (human) (UniProt P36888)
GSK3A (human) = GSK3A (human) (UniProt P49840)
IKBKB (human) = IKBKB (human) (UniProt O14920)
DAPK1 (human) = DAPK1 (human) (UniProt P53355)
EPHA5 (human) = EPHA5 (human) (UniProt P54756)
ADRBK1 (human) = ADRBK1 (human) (UniProt P25098)
BMX (human) = BMX (human) (UniProt P51813)
PRKACG (human) = PRKACG (human) (UniProt P22612)
DDR2 (human) = DDR2 (human) (UniProt Q16832)
PTK6 (human) = PTK6 (human) (UniProt Q13882)
EPHA7 (human) = EPHA7 (human) (UniProt Q15375)
AURKC (human) = AURKC (human) (UniProt Q9UQB9)
BRAF (human) = BRAF (human) (UniProt P15056)
MAP3K3 (human) = MAP3K3 (human) (UniProt Q99759)
PLK3 (human) = PLK3 (human) (UniProt Q9H4B4)
CSNK2A2 (human) = CSNK2A2 (human) (UniProt P19784)
FES (human) = FES (human) (UniProt P07332)
CDK1 CCNB1 (human) = CDK1 CCNB1 (human) (UniProt P06493+P14635)
PHKG1 (human) = PHKG1 (human) (UniProt Q16816)
FLT1 (human) = FLT1 (human) (UniProt P17948)
MST4 (human) = MST4 (human) (UniProt Q9P289)
IKBKE (human) = IKBKE (human) (UniProt Q14164)

Sequence of ACVR1 (human) (Q04771 whole entry, looked up): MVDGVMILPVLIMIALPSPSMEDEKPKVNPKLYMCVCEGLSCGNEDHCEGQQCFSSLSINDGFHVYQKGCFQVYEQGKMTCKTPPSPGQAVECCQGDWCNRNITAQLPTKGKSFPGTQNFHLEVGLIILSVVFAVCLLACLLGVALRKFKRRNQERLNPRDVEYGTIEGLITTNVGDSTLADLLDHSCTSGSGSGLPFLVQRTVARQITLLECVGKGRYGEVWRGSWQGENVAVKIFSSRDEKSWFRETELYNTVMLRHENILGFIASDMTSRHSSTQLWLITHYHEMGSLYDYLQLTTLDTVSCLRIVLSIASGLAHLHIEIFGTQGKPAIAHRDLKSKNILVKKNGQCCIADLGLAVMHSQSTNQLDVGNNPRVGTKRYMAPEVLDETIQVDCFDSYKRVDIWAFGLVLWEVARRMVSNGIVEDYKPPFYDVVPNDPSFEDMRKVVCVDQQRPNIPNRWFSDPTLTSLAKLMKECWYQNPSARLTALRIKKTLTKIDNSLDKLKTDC
Sequence of DAPK1 (human) (P53355 whole entry, looked up): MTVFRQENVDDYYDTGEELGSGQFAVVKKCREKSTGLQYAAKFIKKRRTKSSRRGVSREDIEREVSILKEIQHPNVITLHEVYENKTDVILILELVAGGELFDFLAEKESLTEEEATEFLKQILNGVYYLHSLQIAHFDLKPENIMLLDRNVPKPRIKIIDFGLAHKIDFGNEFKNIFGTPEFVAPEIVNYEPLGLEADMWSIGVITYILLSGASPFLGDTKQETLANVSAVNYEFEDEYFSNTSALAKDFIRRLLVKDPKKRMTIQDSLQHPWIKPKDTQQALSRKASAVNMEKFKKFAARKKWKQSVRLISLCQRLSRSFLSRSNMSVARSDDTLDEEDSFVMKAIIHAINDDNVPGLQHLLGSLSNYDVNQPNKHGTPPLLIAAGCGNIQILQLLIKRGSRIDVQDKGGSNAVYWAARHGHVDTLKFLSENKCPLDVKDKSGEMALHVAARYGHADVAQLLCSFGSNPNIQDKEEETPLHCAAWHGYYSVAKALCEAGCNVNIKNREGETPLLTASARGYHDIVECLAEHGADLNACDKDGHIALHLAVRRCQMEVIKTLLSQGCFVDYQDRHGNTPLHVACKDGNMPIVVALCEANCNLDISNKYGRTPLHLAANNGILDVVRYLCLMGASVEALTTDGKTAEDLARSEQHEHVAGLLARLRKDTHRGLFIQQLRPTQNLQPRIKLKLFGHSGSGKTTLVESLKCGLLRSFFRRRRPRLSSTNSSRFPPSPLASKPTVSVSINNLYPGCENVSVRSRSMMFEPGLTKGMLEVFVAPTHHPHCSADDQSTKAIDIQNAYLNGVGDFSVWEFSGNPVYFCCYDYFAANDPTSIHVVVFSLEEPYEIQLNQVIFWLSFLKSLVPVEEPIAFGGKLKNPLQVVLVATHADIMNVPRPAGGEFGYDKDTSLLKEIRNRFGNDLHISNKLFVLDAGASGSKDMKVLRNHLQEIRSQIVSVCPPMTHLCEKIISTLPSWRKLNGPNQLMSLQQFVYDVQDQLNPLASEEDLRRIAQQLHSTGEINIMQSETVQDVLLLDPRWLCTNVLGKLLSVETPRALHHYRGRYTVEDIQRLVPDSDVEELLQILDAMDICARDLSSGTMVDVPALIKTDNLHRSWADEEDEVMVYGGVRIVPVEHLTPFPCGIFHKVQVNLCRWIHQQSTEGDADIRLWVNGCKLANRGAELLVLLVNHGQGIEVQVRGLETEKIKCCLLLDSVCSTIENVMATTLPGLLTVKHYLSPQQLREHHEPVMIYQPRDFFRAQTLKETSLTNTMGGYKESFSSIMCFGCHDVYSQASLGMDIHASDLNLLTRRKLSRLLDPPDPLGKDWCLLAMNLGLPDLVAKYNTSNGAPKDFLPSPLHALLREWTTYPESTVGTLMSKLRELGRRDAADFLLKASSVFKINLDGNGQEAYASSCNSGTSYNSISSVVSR
Sequence of DDR2 (human) (Q16832 whole entry, looked up): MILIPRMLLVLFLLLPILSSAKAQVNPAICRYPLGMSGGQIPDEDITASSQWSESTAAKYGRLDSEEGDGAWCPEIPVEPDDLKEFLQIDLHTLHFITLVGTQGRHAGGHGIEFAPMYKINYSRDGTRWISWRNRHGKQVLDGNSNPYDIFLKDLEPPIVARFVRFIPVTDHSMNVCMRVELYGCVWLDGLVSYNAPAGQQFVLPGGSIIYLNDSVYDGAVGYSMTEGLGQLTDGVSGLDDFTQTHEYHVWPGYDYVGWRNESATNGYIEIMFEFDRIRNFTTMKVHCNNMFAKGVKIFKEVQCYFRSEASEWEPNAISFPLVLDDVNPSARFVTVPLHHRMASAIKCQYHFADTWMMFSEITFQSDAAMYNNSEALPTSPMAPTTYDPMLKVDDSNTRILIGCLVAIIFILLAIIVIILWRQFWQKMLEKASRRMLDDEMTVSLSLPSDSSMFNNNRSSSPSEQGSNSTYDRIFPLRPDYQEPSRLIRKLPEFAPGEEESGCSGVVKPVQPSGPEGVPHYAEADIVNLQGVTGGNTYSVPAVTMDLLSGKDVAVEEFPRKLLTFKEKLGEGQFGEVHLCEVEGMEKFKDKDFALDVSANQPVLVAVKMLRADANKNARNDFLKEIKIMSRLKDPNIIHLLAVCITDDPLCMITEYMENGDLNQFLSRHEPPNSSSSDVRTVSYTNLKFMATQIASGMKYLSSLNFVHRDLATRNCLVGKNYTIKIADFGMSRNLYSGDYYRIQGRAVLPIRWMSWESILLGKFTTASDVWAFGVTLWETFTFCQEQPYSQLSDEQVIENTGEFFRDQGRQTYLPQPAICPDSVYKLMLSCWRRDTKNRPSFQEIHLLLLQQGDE
Sequence of EPHA5 (human) (P54756 whole entry, looked up): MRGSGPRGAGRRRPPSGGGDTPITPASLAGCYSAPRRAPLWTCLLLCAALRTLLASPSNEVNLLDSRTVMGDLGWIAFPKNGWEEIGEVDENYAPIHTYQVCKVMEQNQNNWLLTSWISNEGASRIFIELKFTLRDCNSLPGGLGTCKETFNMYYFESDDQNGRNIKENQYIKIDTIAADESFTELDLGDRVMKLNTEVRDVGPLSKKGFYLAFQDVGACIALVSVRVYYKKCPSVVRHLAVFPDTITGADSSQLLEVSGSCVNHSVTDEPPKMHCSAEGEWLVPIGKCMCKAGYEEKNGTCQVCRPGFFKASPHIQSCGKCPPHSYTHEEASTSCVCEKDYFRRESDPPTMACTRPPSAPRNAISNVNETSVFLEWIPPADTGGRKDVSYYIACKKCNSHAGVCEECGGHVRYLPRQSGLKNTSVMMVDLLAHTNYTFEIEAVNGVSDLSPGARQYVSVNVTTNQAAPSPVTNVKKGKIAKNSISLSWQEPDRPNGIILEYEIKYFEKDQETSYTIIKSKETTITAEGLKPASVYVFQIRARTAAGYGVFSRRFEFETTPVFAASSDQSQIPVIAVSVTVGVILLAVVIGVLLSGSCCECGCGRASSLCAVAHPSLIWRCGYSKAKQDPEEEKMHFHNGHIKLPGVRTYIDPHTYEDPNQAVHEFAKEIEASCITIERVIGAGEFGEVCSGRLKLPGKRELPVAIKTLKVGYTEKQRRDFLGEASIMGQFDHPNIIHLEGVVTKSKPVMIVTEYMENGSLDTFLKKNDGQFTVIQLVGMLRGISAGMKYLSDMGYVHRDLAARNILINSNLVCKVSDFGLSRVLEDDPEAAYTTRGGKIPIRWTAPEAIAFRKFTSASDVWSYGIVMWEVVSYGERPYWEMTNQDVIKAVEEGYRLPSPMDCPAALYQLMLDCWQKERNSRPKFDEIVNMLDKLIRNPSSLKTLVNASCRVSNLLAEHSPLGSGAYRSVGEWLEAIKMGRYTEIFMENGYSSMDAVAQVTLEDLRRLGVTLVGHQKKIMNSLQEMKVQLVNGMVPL
Sequence of GSK3A (human) (P49840 whole entry, looked up): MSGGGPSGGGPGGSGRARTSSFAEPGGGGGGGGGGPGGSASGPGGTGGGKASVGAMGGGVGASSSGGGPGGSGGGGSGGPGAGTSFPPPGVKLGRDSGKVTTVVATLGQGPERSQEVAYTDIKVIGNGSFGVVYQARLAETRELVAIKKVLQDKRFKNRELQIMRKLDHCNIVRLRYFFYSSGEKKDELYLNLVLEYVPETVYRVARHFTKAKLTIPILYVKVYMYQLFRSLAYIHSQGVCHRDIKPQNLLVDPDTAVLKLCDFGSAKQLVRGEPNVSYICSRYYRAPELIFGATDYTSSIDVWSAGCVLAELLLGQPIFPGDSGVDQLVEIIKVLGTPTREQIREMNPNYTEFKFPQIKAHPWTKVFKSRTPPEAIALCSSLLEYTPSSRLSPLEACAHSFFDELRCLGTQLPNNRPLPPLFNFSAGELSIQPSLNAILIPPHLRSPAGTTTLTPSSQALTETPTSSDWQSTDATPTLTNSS
Sequence of CSNK2A2 (human) (P19784 whole entry, looked up): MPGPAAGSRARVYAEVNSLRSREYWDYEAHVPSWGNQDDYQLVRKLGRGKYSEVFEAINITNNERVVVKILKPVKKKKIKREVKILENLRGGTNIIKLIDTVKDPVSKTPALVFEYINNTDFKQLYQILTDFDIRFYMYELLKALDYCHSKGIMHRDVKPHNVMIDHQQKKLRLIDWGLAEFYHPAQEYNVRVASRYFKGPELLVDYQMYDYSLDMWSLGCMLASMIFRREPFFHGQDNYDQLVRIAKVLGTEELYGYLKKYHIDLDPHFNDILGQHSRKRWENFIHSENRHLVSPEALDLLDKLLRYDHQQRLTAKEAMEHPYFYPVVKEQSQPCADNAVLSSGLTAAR
Sequence of AURKC (human) (Q9UQB9 whole entry, looked up): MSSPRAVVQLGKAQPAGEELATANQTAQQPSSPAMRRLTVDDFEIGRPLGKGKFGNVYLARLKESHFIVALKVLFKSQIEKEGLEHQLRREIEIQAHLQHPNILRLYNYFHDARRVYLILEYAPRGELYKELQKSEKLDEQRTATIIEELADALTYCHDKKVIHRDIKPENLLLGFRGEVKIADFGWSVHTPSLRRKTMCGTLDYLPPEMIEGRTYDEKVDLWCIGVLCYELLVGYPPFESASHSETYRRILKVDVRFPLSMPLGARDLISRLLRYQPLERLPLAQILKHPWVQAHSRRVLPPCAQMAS

SMILES: c1ccc(-c2n[nH]cc2-c2ccnc3ccccc23)nc1
residual activity (ULK3 (human)): 85.3% | residual activity (ROCK1 (human)): 103% | residual activity (YES1 (human)): 93.3% | residual activity (PRKCB1 (human)): 102% | residual activity (HIPK4 (human)): 89.9% | residual activity (CAMK1 (human)): 96.1% | residual activity (ACVR1 (human)): 106% | residual activity (ZAP70 (human)): 100% | residual activity (FYN (human)): 110% | residual activity (MAP3K10 (human)): 104% | residual activity (MYLK2 (human)): 98.3% | residual activity (MAPKAPK2 (human)): 100% | residual activity (STK16 (human)): 100% | residual activity (STK33 (human)): 92.9% | residual activity (LRRK2 (human)): 93.7% | residual activity (GSK3B (human)): 95.2% | residual activity (ACVR1B (human)): 43.2% | residual activity (PAK4 (human)): 76.9% | residual activity (DYRK2 (human)): 113% | residual activity (FLT3 (human)): 91.2% | residual activity (GSK3A (human)): 95.1% | residual activity (IKBKB (human)): 105% | residual activity (DAPK1 (human)): 111% | residual activity (EPHA5 (human)): 94.9% | residual activity (ADRBK1 (human)): 101% | residual activity (BMX (human)): 89.2% | residual activity (PRKACG (human)): 92.9% | residual activity (DDR2 (human)): 95.1% | residual activity (PTK6 (human)): 70.9% | residual activity (EPHA7 (human)): 91.4% | residual activity (AURKC (human)): 100% | residual activity (BRAF (human)): 95.7% | residual activity (MAP3K3 (human)): 79.4% | residual activity (PLK3 (human)): 91.7% | residual activity (CSNK2A2 (human)): 96.7% | residual activity (FES (human)): 111% | residual activity (CDK1 CCNB1 (human)): 106% | residual activity (PHKG1 (human)): 94.2% | residual activity (FLT1 (human)): 81.4% | residual activity (MST4 (human)): 83.4% | residual activity (IKBKE (human)): 101%

SMILES: N#CC(C#N)=C(N)/C(C#N)=C/c1ccc(O)cc1
residual activity (ULK3 (human)): 67.8% | residual activity (ROCK1 (human)): 100% | residual activity (YES1 (human)): 100% | residual activity (PRKCB1 (human)): 114% | residual activity (HIPK4 (human)): 99.7% | residual activity (CAMK1 (human)): 97.2% | residual activity (ACVR1 (human)): 93.8% | residual activity (ZAP70 (human)): 96% | residual activity (FYN (human)): 98.4% | residual activity (MAP3K10 (human)): 98% | residual activity (MYLK2 (human)): 99.4% | residual activity (MAPKAPK2 (human)): 91.3% | residual activity (STK16 (human)): 109% | residual activity (STK33 (human)): 93.2% | residual activity (LRRK2 (human)): 97.1% | residual activity (GSK3B (human)): 89.5% | residual activity (ACVR1B (human)): 101% | residual activity (PAK4 (human)): 85.6% | residual activity (DYRK2 (human)): 117% | residual activity (FLT3 (human)): 92.2% | residual activity (GSK3A (human)): 91.1% | residual activity (IKBKB (human)): 102% | residual activity (DAPK1 (human)): 92.7% | residual activity (EPHA5 (human)): 94.3% | residual activity (ADRBK1 (human)): 104% | residual activity (BMX (human)): 80% | residual activity (PRKACG (human)): 96.8% | residual activity (DDR2 (human)): 97.6% | residual activity (PTK6 (human)): 84.9% | residual activity (EPHA7 (human)): 90.5% | residual activity (AURKC (human)): 101% | residual activity (BRAF (human)): 90.1% | residual activity (MAP3K3 (human)): 78.6% | residual activity (PLK3 (human)): 63.6% | residual activity (CSNK2A2 (human)): 102% | residual activity (FES (human)): 101% | residual activity (CDK1 CCNB1 (human)): 111% | residual activity (PHKG1 (human)): 92.5% | residual activity (FLT1 (human)): 90.7% | residual activity (MST4 (human)): 101% | residual activity (IKBKE (human)): 91%

SMILES: CC(C)N(CCC(=O)c1ccc2ccccc2c1)Cc1ccccc1
residual activity (ULK3 (human)): 95.8% | residual activity (ROCK1 (human)): 98.6% | residual activity (YES1 (human)): 100% | residual activity (PRKCB1 (human)): 92.6% | residual activity (HIPK4 (human)): 107% | residual activity (CAMK1 (human)): 104% | residual activity (ACVR1 (human)): 93.6% | residual activity (ZAP70 (human)): 93.7% | residual activity (FYN (human)): 95.3% | residual activity (MAP3K10 (human)): 92.6% | residual activity (MYLK2 (human)): 100% | residual activity (MAPKAPK2 (human)): 99% | residual activity (STK16 (human)): 91.6% | residual activity (STK33 (human)): 104% | residual activity (LRRK2 (human)): 98.2% | residual activity (GSK3B (human)): 94.9% | residual activity (ACVR1B (human)): 99.5% | residual activity (PAK4 (human)): 90.4% | residual activity (DYRK2 (human)): 118% | residual activity (FLT3 (human)): 97.5% | residual activity (GSK3A (human)): 98.8% | residual activity (IKBKB (human)): 101% | residual activity (DAPK1 (human)): 97.9% | residual activity (EPHA5 (human)): 118% | residual activity (ADRBK1 (human)): 106% | residual activity (BMX (human)): 102% | residual activity (PRKACG (human)): 107% | residual activity (DDR2 (human)): 92.5% | residual activity (PTK6 (human)): 96.4% | residual activity (EPHA7 (human)): 106% | residual activity (AURKC (human)): 97.5% | residual activity (BRAF (human)): 95.6% | residual activity (MAP3K3 (human)): 102% | residual activity (PLK3 (human)): 105% | residual activity (CSNK2A2 (human)): 95.4% | residual activity (FES (human)): 92.7% | residual activity (CDK1 CCNB1 (human)): 104% | residual activity (PHKG1 (human)): 91.6% | residual activity (FLT1 (human)): 86% | residual activity (MST4 (human)): 108% | residual activity (IKBKE (human)): 93%

SMILES: CCOC(=O)c1c(C)[nH]c(/C=C2\C(=O)Nc3ccccc32)c1C
residual activity (ULK3 (human)): 76.7% | residual activity (ROCK1 (human)): 99.1% | residual activity (YES1 (human)): 68.3% | residual activity (PRKCB1 (human)): 103% | residual activity (HIPK4 (human)): 90.2% | residual activity (CAMK1 (human)): 98.1% | residual activity (ACVR1 (human)): 99.8% | residual activity (ZAP70 (human)): 98.8% | residual activity (FYN (human)): 97.3% | residual activity (MAP3K10 (human)): 98.5% | residual activity (MYLK2 (human)): 74.7% | residual activity (MAPKAPK2 (human)): 98.6% | residual activity (STK16 (human)): 88.3% | residual activity (STK33 (human)): 83.7% | residual activity (LRRK2 (human)): 28.6% | residual activity (GSK3B (human)): 105% | residual activity (ACVR1B (human)): 96.6% | residual activity (PAK4 (human)): 71.8% | residual activity (DYRK2 (human)): 92.4% | residual activity (FLT3 (human)): 13.3% | residual activity (GSK3A (human)): 93.5% | residual activity (IKBKB (human)): 101% | residual activity (DAPK1 (human)): 100% | residual activity (EPHA5 (human)): 91.9% | residual activity (ADRBK1 (human)): 98.2% | residual activity (BMX (human)): 93.5% | residual activity (PRKACG (human)): 88.4% | residual activity (DDR2 (human)): 98% | residual activity (PTK6 (human)): 82.8% | residual activity (EPHA7 (human)): 85.3% | residual activity (AURKC (human)): 89.1% | residual activity (BRAF (human)): 96.7% | residual activity (MAP3K3 (human)): 92.8% | residual activity (PLK3 (human)): 97.5% | residual activity (CSNK2A2 (human)): 94.7% | residual activity (FES (human)): 99.3% | residual activity (CDK1 CCNB1 (human)): 100% | residual activity (PHKG1 (human)): 73.3% | residual activity (FLT1 (human)): 79% | residual activity (MST4 (human)): 101% | residual activity (IKBKE (human)): 93.5%

residual activity (ULK3 (human)): 102% | residual activity (ROCK1 (human)): 106% | residual activity (YES1 (human)): 0.657% | residual activity (PRKCB1 (human)): 92.8% | residual activity (HIPK4 (human)): 102% | residual activity (CAMK1 (human)): 100% | residual activity (ACVR1 (human)): 95.4% | residual activity (ZAP70 (human)): 102% | residual activity (FYN (human)): 3.51% | residual activity (MAP3K10 (human)): 82.6% | residual activity (MYLK2 (human)): 92.4% | residual activity (MAPKAPK2 (human)): 107% | residual activity (STK16 (human)): 90.7% | residual activity (STK33 (human)): 92.3% | residual activity (LRRK2 (human)): 86.2% | residual activity (GSK3B (human)): 99.2% | residual activity (ACVR1B (human)): 93.9% | residual activity (PAK4 (human)): 101% | residual activity (DYRK2 (human)): 96.5% | residual activity (FLT3 (human)): 4.48% | residual activity (GSK3A (human)): 105% | residual activity (IKBKB (human)): 101% | residual activity (DAPK1 (human)): 79.1% | residual activity (EPHA5 (human)): 108% | residual activity (ADRBK1 (human)): 97.8% | residual activity (BMX (human)): 10.1% | residual activity (PRKACG (human)): 106% | residual activity (DDR2 (human)): 95% | residual activity (PTK6 (human)): 0.775% | residual activity (EPHA7 (human)): 98.3% | residual activity (AURKC (human)): 95% | residual activity (BRAF (human)): 85.4% | residual activity (MAP3K3 (human)): 71.2% | residual activity (PLK3 (human)): 105% | residual activity (CSNK2A2 (human)): 74.7% | residual activity (FES (human)): 94.9% | residual activity (CDK1 CCNB1 (human)): 110% | residual activity (PHKG1 (human)): 91.1% | residual activity (FLT1 (human)): 76.9% | residual activity (MST4 (human)): 95.2% | residual activity (IKBKE (human)): 97.4%
SMILES: Nc1ncnc2c1c(-c1ccc(Oc3ccccc3)cc1)cn2C1CCCC1
